The results in this text go back to patent EP2970215B1, “PYRROLIDINE DERIVATIVES, PHARMACEUTICAL COMPOSITIONS CONTAINING THEM, AND THEIR USE IN THERAPY” (AbbVie Deutschland GmbH & Co. KG, priority 2013, dated 2014).

In the experiment the target is T1, human GlyT1c transporter (Homo sapiens, UniProt P48067).
T1 construct: expressed in transfected cells; host or cells: CHO cells (recombinant; line hGlyT1c_5_CHO is named for the uptake assay)
T1 sequence (P48067 1-706): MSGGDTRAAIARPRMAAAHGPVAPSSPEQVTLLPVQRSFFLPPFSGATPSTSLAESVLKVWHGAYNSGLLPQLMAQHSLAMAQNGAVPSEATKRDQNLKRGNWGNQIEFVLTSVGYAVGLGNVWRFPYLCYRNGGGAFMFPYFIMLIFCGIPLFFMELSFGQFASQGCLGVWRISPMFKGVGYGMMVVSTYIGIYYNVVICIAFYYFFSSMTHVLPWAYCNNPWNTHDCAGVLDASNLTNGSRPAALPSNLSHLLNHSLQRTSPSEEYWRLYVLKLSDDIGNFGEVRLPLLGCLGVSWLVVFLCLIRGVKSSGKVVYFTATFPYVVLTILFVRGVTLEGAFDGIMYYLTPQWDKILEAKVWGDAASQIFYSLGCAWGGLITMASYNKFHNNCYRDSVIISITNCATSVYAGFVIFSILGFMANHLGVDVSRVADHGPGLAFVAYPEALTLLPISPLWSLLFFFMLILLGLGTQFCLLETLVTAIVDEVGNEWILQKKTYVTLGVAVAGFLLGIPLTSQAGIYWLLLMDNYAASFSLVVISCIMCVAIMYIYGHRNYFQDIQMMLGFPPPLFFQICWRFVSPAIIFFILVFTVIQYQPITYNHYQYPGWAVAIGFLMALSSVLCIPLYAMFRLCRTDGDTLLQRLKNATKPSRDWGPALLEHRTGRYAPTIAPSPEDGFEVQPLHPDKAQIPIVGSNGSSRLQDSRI
The experiment can be described thus: Radioligand binding assay using recombinant CHO cell membranes expressing human GlyT1. From the text: 2. Radioligand binding assays using recombinant CHO cell membranes expressing human GlyT1: […]

The mark [1] stands for this setting: radioligand binding to human GlyT1c transporter-expressing membranes.

Usually Ki stands for the dissociation constant of the complex between target and ligand, obtained from inhibition or displacement. Turning to `Cn1cnc(S(=O)(=O)N2C[C@@H](Nc3cccc(OC(F)(F)F)c3)[C@H](c3ccccc3)C2)c1` (relative stereo) [Example 226, trans-1-[(1-methyl-1H-imidazol-4-yl)sulfonyl]-4-phenyl-N-[3-(trifluoromethoxy)phenyl]pyrrolidin-3-amine], the Ki under setting [1] is at most 10 nM.
On the same count and under the same terms, in the case of `O=S(=O)(C1CCCCC1)N1CC(Nc2ccc(F)c(F)c2)C(c2ccccc2)C1` (stereo not drawn) [Example 510, 1-(cyclohexylsulfonyl)-N-(3,4-difluorophenyl)-4-phenylpyrrolidin-3-amine] it was at most 10000 nM; in that of `Cn1cnc(S(=O)(=O)N2C[C@@H](Nc3cc(F)cc(C(F)(F)F)c3)[C@H](c3ccc(F)cc3)C2)c1` (relative stereo) [Example 168, trans-4-(4-fluorophenyl)-N-[3-fluoro-5-(trifluoromethyl)phenyl]-1-[(1-methyl-1H-imidazol-4-yl)sulfonyl]pyrrolidin-3-amine], at most 100 nM; in that of `Cn1cnc(S(=O)(=O)N2C[C@@H](NC(=O)c3ccc(Cl)cc3)[C@H](c3ccccc3)C2)c1` (relative stereo) [Example 16, 4-chloro-N-{trans-1-[(1-methyl-1H-imidazol-4-yl)sulfonyl]-4-phenylpyrrolidin-3-yl}benzamide], at most 1000 nM.
For the compound `CC(C)OCCNC[C@@H]1CN(S(=O)(=O)c2cn(C)cn2)C[C@H]1c1ccc(F)cc1` (relative stereo) [Example 599, N-({trans-4-(4-fluorophenyl)-1-[(1-methyl-1H-imidazol-4-yl)sulfonyl]pyrrolidin-3-yl}methyl)-2-(propan-2-yloxy)ethanamine], the Ki under setting [1] is at most 10000 nM.
Same read-out and setting: the value for `Cn1cnc(S(=O)(=O)N2C[C@@H](CNc3ccccc3)[C@H](c3ccc(F)cc3)C2)c1` (relative stereo) [Example 290, N-({trans-4-(4-fluorophenyl)-1-[(1-methyl-1H-imidazol-4-yl)sulfonyl]pyrrolidin-3-yl}methyl)aniline] was at most 10000 nM.
`Cn1cnc(S(=O)(=O)N2C[C@@H](Nc3ccccc3Cl)[C@H](c3ccccc3)C2)c1` (relative stereo) [Example 73, trans-N-(2-chlorophenyl)-1-[(1-methyl-1H-imidazol-4-yl)sulfonyl]-4-phenylpyrrolidin-3-amine]: the Ki under setting [1] was at most 10000 nM.
Same read-out and setting: the value for `Cn1cnc(S(=O)(=O)N2C[C@H](Nc3cccc(S(C)(=O)=O)c3)[C@@H](c3ccccc3)C2)c1` [Example 422, (3R,4S)-1-[(1-methyl-1H-imidazol-4-yl)sulfonyl]-N-[3-(methylsulfonyl)phenyl]-4-phenylpyrrolidin-3-amine] was at most 1000 nM; that for `Cn1cnc(S(=O)(=O)N2C[C@@H](Nc3cc(F)cc(C(F)(F)F)c3)[C@H](c3ccccc3)C2)c1` (relative stereo) [Example 223, trans-N-[3-fluoro-5-(trifluoromethyl)phenyl]-1-[(1-methyl-1H-imidazol-4-yl)sulfonyl]-4-phenylpyrrolidin-3-amine] was at most 100 nM; that for `Cn1cnc(S(=O)(=O)N2C[C@H](NCc3cccc4ccnn34)[C@@H](c3ccccc3)C2)c1` [Example 555, (3R,4S)-1-[(1-methyl-1H-imidazol-4-yl)sulfonyl]-4-phenyl-N-(pyrazolo[1,5-a]pyridin-7-ylmethyl)pyrrolidin-3-amine] was at most 10000 nM.
For the compound `Cn1cnc(S(=O)(=O)N2C[C@@H](NCc3ccc(Cl)cc3Cl)[C@H](c3ccccn3)C2)c1` (relative stereo) [Example 307, trans-N-(2,4-dichlorobenzyl)-1-[(1-methyl-1H-imidazol-4-yl)sulfonyl]-4-(pyridin-2-yl)pyrrolidin-3-amine], the Ki under setting [1] is at most 100 nM.
Consider `Cc1cc(N[C@H]2CN(S(=O)(=O)c3cn(C)cn3)C[C@@H]2c2ccccc2)ccc1Cl` [Example 669, (3R,4S)-N-(4-chloro-3-methylphenyl)-1-[(1-methyl-1H-imidazol-4-yl)sulfonyl]-4-phenylpyrrolidin-3-amine], for which the Ki under setting [1] was at most 100 nM.
Still for that read-out and setting: the value for `COc1nccc(N[C@H]2CN(S(=O)(=O)c3cn(C)cn3)C[C@@H]2c2ccccc2)n1` [Example 532, 2-methoxy-N-{(3R,4S)-1-[(1-methyl-1H-imidazol-4-yl)sulfonyl]-4-phenylpyrrolidin-3-yl}pyrimidin-4-amine] was at most 10000 nM; that for `Cc1ncc(S(=O)(=O)N2C[C@H](Nc3ccc(F)c(C(F)(F)F)c3)[C@@H](c3ccc(F)cc3)C2)n1C` [Example 758, (3R,4S)-1-[(1,2-dimethyl-1H-imidazol-5-yl)sulfonyl]-4-(4-fluorophenyl)-N-[4-fluoro-3-(trifluoromethyl)phenyl]pyrrolidin-3-amine] was at most 10000 nM.
On to `Cn1cnc(S(=O)(=O)N2C[C@@H](C(=O)c3ccc(Cl)c(Cl)c3)[C@H](c3ccc(F)cc3)C2)c1` (relative stereo) [Example 359, (3,4-Dichlorophenyl){trans-4-(4-fluorophenyl)-1-[(1-methyl-1H-imidazol-4-yl)sulfonyl]pyrrolidin-3-yl} methanone], for which the Ki under setting [1] is at most 1000 nM.
On the same count and under the same terms, in the case of `Cn1cnc(S(=O)(=O)N2C[C@H](NCc3nc4ccccc4s3)[C@@H](c3ccccc3)C2)c1` [Example 453, (3R,4S)-N-(1,3-benzothiazol-2-ylmethyl)-1-[(1-methyl-1H-imidazol-4-yl)sulfonyl]-4-phenylpyrrolidin-3-amine] it was at most 1000 nM; in that of `Cn1cnc(S(=O)(=O)N2C[C@@H](Nc3cccc(Cl)c3)[C@H](c3ccccn3)C2)c1` (relative stereo) [Example 345, Trans-N-(3-chlorophenyl)-1-[(1-methyl-1H-imidazol-4-yl)sulfonyl]-4-(pyridin-2-yl)pyrrolidin-3-amine], at most 100 nM.
Still for that read-out and setting: in the case of `Cc1cc(S(=O)(=O)N2CC(Nc3ccc(F)c(F)c3)C(c3ccccc3)C2)c(C)s1` (stereo not drawn) [Example 517, N-(3,4-difluorophenyl)-1-[(2,5-dimethylthiophen-3-yl)sulfonyl]-4-phenylpyrrolidin-3-amine] it was at most 10000 nM.
For the compound `Cn1cnc(S(=O)(=O)N2C[C@@H](Nc3ccc(F)c(F)c3)[C@H](c3ccc(F)cc3)C2)c1` (relative stereo) [Example 158, trans-N-(3,4-difluorophenyl)-4-(4-fluorophenyl)-1-[(1-methyl-1H-imidazol-4-yl)sulfonyl]pyrrolidin-3-amine], under setting [1], the Ki was at most 100 nM.
On the same count and under the same terms, in the case of `Cn1cnc(S(=O)(=O)N2C[C@@H](CNc3cccc(C(N)=O)c3)[C@H](c3ccc(F)cc3)C2)c1` (relative stereo) [Example 364, 3-[({Trans-4-(4-fluorophenyl)-1-[(1-methyl-1H-imidazol-4-yl)sulfonyl]pyrrolidin-3-yl}methyl)amino]benzamide] it was at most 10000 nM; in that of `Cn1cnc(S(=O)(=O)N2C[C@@H](NC(=O)c3ccc(F)cc3Cl)[C@H](c3ccccc3)C2)c1` (relative stereo) [Example 27, 2-chloro-4-fluoro-N-{trans-1-[(1-methyl-1H-imidazol-4-yl)sulfonyl]-4-phenylpyrrolidin-3-yl}benzamide], at most 1000 nM; in that of `Cn1cnc(S(=O)(=O)N2C[C@@H](COc3cccc(F)c3)[C@H](c3ccc(F)cc3)C2)c1` (relative stereo) [Example 251, 4-{[trans-3-[(3-fluorophenoxy)methyl]-4-(4-fluorophenyl)pyrrolidin-1-yl]sulfonyl}-1-methyl-1H-imidazole], at most 100 nM.
Still for that read-out and setting: in the case of `Cc1ncc(S(=O)(=O)N2CC(Nc3ccc(F)c(F)c3)C(c3ccccc3)C2)n1C` (stereo not drawn) [Example 490, N-(3,4-difluorophenyl)-1-[(1,2-dimethyl-1H-imidazol-5-yl)sulfonyl]-4-phenylpyrrolidin-3-amine] it was at most 10000 nM; in that of `Cn1cnc(S(=O)(=O)N2C[C@H](NCc3cnn4ccccc34)[C@@H](c3ccccc3)C2)c1` [Example 537, (3R,4S)-1-[(1-methyl-1H-imidazol-4-yl)sulfonyl]-4-phenyl-N-(pyrazolo[1,5-a]pyridin-3-ylmethyl)pyrrolidin-3-amine], at most 10000 nM.
As to `Cc1cc(N[C@@H]2CN(S(=O)(=O)c3cn(C)cn3)C[C@H]2C2CCCO2)ccc1F` (relative stereo) [Example 845, Trans-N-(4-fluoro-3-methylphenyl)-1-[(1-methyl-1H-imidazol-4-yl)sulfonyl]-4-(tetrahydrofuran-2-yl)pyrrolidin-3-amine], the Ki (radioligand binding, recombinant CHO cell membranes expressing human GlyT1c) is at most 1000 nM.
As for `Cn1cnc(S(=O)(=O)N2C[C@@H](Nc3ccc(C(F)(F)F)cc3)[C@H](c3cccc(F)c3)C2)c1` (relative stereo) [Example 190, trans-4-(3-fluorophenyl)-1-[(1-methyl-1H-imidazol-4-yl)sulfonyl] -N-[4-(trifluoromethyl)phenyl]pyrrolidin-3-amine], the Ki under setting [1] is at most 1000 nM.
The same measure, in the same setting: in the case of `Cn1cnc(S(=O)(=O)N2C[C@@H](NC(=O)c3ccc(Cl)cc3Cl)[C@H](c3ccccc3)C2)c1` (relative stereo) [Example 26, 2,4-dichloro-N-{trans-1-[(1-methyl-1H-imidazol-4-yl)sulfonyl]-4-phenylpyrrolidin-3-yl}benzamide] it was at most 1000 nM.
